Experimental data: PubChem BioAssay (NCI)
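Step 1: Grow cells in 96-well plates. Step 2: Expose to compound for 48 hours at 5 concentrations. Step 3: Interpolate endpoints linearly; if unreached, use highest concentration. GI50 = concentration required for 50% inhibition of growth. TGI marks complete inhibition of growth.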

What was measured:
Assay in all cases: NCI tumour cell line growth inhibition, 48 h
MDA-N = test system: MDA-N
MCF7 breast = test system: MCF7 breast
DU-145 prostate = test system: DU-145 prostate
MDA-MB-231 breast = test system: MDA-MB-231 breast
NCI/ADR-RES ovarian = test system: NCI/ADR-RES ovarian
T-47D breast = test system: T-47D breast
BT-549 breast = test system: BT-549 breast
SR leukemia = test system: SR leukemia
DMS 114 small cell lung = test system: DMS 114 small cell lung
HOP-18 NSCLC = test system: HOP-18 NSCLC
P388 leukemia = test system: P388 leukemia
P388/ADR leukemia = test system: P388/ADR leukemia
SN12K1 renal = test system: SN12K1 renal
M19-MEL melanoma = test system: M19-MEL melanoma

C[C@H]1C(=O)O[C@@H]2CCN3CC=C(COC(=O)[C@](C)(O)[C@@]1(C)O)[C@H]23
TGI (MDA-N): > 100 µM
TGI (MCF7 breast): > 100 µM
TGI (DU-145 prostate): > 100 µM
TGI (MDA-MB-231 breast): > 100 µM
TGI (NCI/ADR-RES ovarian): > 100 µM
TGI (T-47D breast): > 100 µM
TGI (BT-549 breast): > 100 µM

CC(=O)NNc1nc(-c2ccc([N+](=O)[O-])cc2)c(C#N)c(=O)n1C
TGI (MDA-N): > 100 µM
TGI (MCF7 breast): 97.3 µM
TGI (DU-145 prostate): > 100 µM
TGI (MDA-MB-231 breast): 34.2 µM
TGI (NCI/ADR-RES ovarian): > 100 µM
TGI (T-47D breast): > 100 µM
TGI (BT-549 breast): 23 µM
TGI (SR leukemia): > 100 µM

CN(C)C(=O)/C=C/c1c[nH]c(=O)[nH]c1=O
TGI (DMS 114 small cell lung): > 500 µM
TGI (MCF7 breast): > 500 µM
TGI (HOP-18 NSCLC): > 500 µM
TGI (P388 leukemia): > 281 µM
TGI (NCI/ADR-RES ovarian): > 500 µM
TGI (P388/ADR leukemia): > 281 µM
TGI (SN12K1 renal): > 500 µM

COc1ccc(C2=C3SC=c4ccccc4=C3ON=C2c2ccccc2)cc1
TGI (MCF7 breast): > 100 µM
TGI (DU-145 prostate): > 100 µM
TGI (MDA-MB-231 breast): > 100 µM
TGI (NCI/ADR-RES ovarian): > 100 µM
TGI (T-47D breast): > 100 µM
TGI (BT-549 breast): > 100 µM
TGI (SR leukemia): > 100 µM

Cc1cccc2c1Sc1ccccc1C2NC(=O)CCN(C)C (stereo not given)
TGI (DMS 114 small cell lung): > 100 µM
TGI (M19-MEL melanoma): > 100 µM
TGI (SR leukemia): > 100 µM

O=C(Nc1ccc([N+](=O)[O-])cc1[N+](=O)[O-])C(=O)C(C(=O)c1ccc2ccccc2c1)C1OC(=O)c2ccccc21 (stereo not given)
TGI (DMS 114 small cell lung): 45.1 µM
TGI (M19-MEL melanoma): 29.6 µM
TGI (SR leukemia): 16.7 µM

CN(C)CCNC(=O)c1cccc2ccc(-c3ccc(F)cc3)nc12
TGI (DMS 114 small cell lung): 17.8 µM
TGI (MCF7 breast): 20.5 µM
TGI (HOP-18 NSCLC): 54.1 µM
TGI (P388 leukemia): 3.66 µM
TGI (NCI/ADR-RES ovarian): 18.4 µM
TGI (P388/ADR leukemia): 5.17 µM
TGI (SN12K1 renal): 12.2 µM
TGI (M19-MEL melanoma): 15.9 µM

COc1cc(C2CC(c3cccc(Nc4ccncc4)c3)=NN2c2ccc(Cl)cc2)cc(OC)c1OC (stereo not given)
GI50 (MCF7 breast): 1.72 µM
TGI (MCF7 breast): 3.61 µM
GI50 (DU-145 prostate): 1.78 µM
TGI (DU-145 prostate): 3.17 µM
GI50 (T-47D breast): 1.79 µM
TGI (T-47D breast): 4.23 µM

N=C1C(=N)c2ccccc2-c2ccccc21.N=C1C(=N)c2ccccc2-c2ccccc21.N=C1C(=N)c2ccccc2-c2ccccc21.[Cl-].[Ru+2]
GI50 (DMS 114 small cell lung): 1.63 µM
TGI (DMS 114 small cell lung): 3.07 µM
GI50 (HOP-18 NSCLC): 3.14 µM
TGI (HOP-18 NSCLC): 7.76 µM
GI50 (M19-MEL melanoma): 1.46 µM
TGI (M19-MEL melanoma): 2.86 µM
TGI (SR leukemia): 5.57 µM

O=P1(c2ccccc2)Nc2ccccc2SSc2ccccc2N1
TGI (DMS 114 small cell lung): 43 µM
TGI (MCF7 breast): 37.5 µM
TGI (HOP-18 NSCLC): 36.6 µM
TGI (P388 leukemia): > 38.6 µM
TGI (NCI/ADR-RES ovarian): 42.3 µM
TGI (P388/ADR leukemia): 31.2 µM
TGI (SN12K1 renal): 30.7 µM
TGI (M19-MEL melanoma): 34.4 µM

COc1ccc2c(c1)CCCN2CCCCCCCCCCN(CCC(C)C)CCC(C)C
TGI (DMS 114 small cell lung): 19.5 µM
TGI (HOP-18 NSCLC): 24.7 µM
TGI (M19-MEL melanoma): 30.7 µM

COc1ccc(/C(Cl)=C(\C=O)c2ccc(OC)cc2)cc1
TGI (DMS 114 small cell lung): > 100 µM
TGI (HOP-18 NSCLC): > 100 µM
TGI (M19-MEL melanoma): > 100 µM
TGI (SR leukemia): 78.8 µM

CCCOC(=O)CNC(=O)OC(C)(C)C
TGI (DMS 114 small cell lung): > 100 µM
TGI (HOP-18 NSCLC): > 100 µM
TGI (M19-MEL melanoma): > 100 µM
TGI (SR leukemia): > 100 µM

NCCc1cc(O)c(O)cc1O
TGI (MDA-N): 47 µM
TGI (MCF7 breast): 44.4 µM
TGI (DU-145 prostate): 32.4 µM
TGI (MDA-MB-231 breast): 44.6 µM
TGI (NCI/ADR-RES ovarian): > 86.7 µM
TGI (T-47D breast): 73.2 µM
TGI (BT-549 breast): 70.6 µM
TGI (SR leukemia): 31 µM

CCOC(=O)c1c2c(n(Cc3ccccc3)c1C)C(=O)C(=O)c1ccccc1-2
TGI (DU-145 prostate): 0.972 µM
TGI (MDA-MB-231 breast): 1.99 µM
TGI (NCI/ADR-RES ovarian): > 100 µM
TGI (T-47D breast): 2.19 µM

Nc1n[nH]c(=O)c2c1c(I)cn2C1OC(CO)C(O)C1O (stereo not given)
TGI (DMS 114 small cell lung): 6.62 µM
TGI (HOP-18 NSCLC): > 100 µM
TGI (SR leukemia): 1.33 µM
